Assay results reported in US20120142705A1, “ISATIN AND OXINDOLE COMPOUNDS” (priority 2010, published 2012).

What follows are compounds tested against T1, Recombinant human liver GK1 (GST-GK) (Homo sapiens, UniProt P35557) (assay: In vitro glucokinase activity, G6PDH-coupled spectrophotometric assay). Conditions: 5 mM D-glucose, 30° C., pH 7.1.
T1 construct: made in house; host or cells: E. coli
T1 sequence (P35557 1-466 isoform P35557-2): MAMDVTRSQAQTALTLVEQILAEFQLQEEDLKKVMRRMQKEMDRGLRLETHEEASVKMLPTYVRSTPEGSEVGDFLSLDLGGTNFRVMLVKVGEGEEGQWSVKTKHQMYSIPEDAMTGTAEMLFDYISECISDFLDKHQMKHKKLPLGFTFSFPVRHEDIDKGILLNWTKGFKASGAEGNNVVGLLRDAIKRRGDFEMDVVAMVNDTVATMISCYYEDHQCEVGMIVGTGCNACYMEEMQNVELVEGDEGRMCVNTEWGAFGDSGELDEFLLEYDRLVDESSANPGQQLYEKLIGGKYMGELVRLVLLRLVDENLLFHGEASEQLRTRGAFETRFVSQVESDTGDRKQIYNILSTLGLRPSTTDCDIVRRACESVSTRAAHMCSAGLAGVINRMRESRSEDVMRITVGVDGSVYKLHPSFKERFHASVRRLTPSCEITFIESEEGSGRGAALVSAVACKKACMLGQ
Format: biochemical
Experimental: Glucokinase In Vitro Assay Protocol: Glucokinase (GK) was assayed by coupling the production of glucose-6-phosphate to the generation of NADH with glucose-6-phosphate dehydrogenase (G6PDH, 0.75-1 kunits/mg; Boehringer Mannheim, Indianapolis, Ind.) from Leuconostoc mesenteroides as the coupling enzyme (Scheme 2).
Recombinant human liver GK1 was expressed in E. coli as a glutathione S-transferase fusion protein (GST-GK) [Liang et al, 1995] and was purified by chromatography over a glutathione-Sepharose 4B affinity column using the procedure provided by the manufacturer (Amersham Pharmacia Biotech, Piscataway, N.J.).
The assay was conducted at 30° C. in a flat bottom 96-well tissue culture plate from Costar (Cambridge, Mass.) with a final incubation volume of 120 μL. The incubation reaction contained the following: 25 mM Hepes buffer (pH 7.1), 25 mM KCl, 5 mM D-glucose, 1 mM ATP, 1.8 mM NAD, 2 mM MgCl2, 1 μM sorbitol-6-phosphate, 1 mM dithiothreitol, test drug or 10% dimethylsulfoxide, ˜7 units/ml G6PDH, and GK (see below). All organic reagents were >98% pure and were from Boehringer Mannheim with the exceptions of D-glucose and Hepes which were from Sigma Chemical Co, St Louis, Mo. Test compounds were dissolved in dimethylsulfoxide and were added to the incubation reaction minus GST-GK in a volume of 12 μL to yield a final dimethylsulfoxide concentration of 10%. This mix was pre-incubated in the temperature controlled chamber of a SPECTRAmax 250 microplate spectrophotometer (Molecular Devices Corporation, Sunnyvale, Calif.) for 10 minutes to allow temperature equilibrium and then the reaction was started by the addition of 20 μL GST-GK.
After addition of enzyme, the increase in optical density (OD) at 340 nm was monitored spectrophotometrically to determine the rate of change (OD340 per min). The GK activity (OD340/min) in control wells (10% dimethylsulfoxide minus GK activators) was compared with the activity in wells containing test GK activators, and the concentration of activator that produced a 50% increase in the activity of GK, i.e., the SC1.5, was calculated.

| Compound | SC1.5 (concentration of activator that produced a 50% increase in the activity of GK) |
| --- | --- |
| O=C(Nc1cnccn1)C(CC1CCCC1)N1C(=O)Cc2ccccc21 (centres unmarked) [Example 2, 3-Cyclopentyl-2-(2-oxo-2,3-dihydro-indol-1-yl)-N-pyrazin-2-yl-propionamide] | 5.93 µM |
| O=C(Nc1nccs1)C(CC1CCCC1)N1C(=O)Cc2ccccc21 (centres unmarked) [Example 3, 3-Cyclopentyl-2-(2-oxo-2,3-dihydro-indol-1-yl)-N-thiazol-2-yl-propionamide] | 3.3 µM |
| O=C1C(=O)N(C(CC2CCCC2)C(=O)Nc2nccs2)c2ccccc21 (centres unmarked) [Example 4, 3-Cyclopentyl-2-(2,3-dioxo-2,3-dihydro-indol-1-yl)-N-thiazol-2-yl-propionamide] | 5.21 µM |
| O=C1C(=O)N(C(CC2CCCC2)C(=O)Nc2ccccn2)c2ccccc21 (centres unmarked) [Example 6, 3-Cyclopentyl-2-(2,3-dioxo-2,3-dihydro-indol-1-yl)-N-pyridin-2-yl-propionamide] | 5.19 µM |
| Cn1ccc(NC(=O)C(CC2CCCC2)N2C(=O)Cc3ccccc32)n1 (centres unmarked) [Example 7, 3-Cyclopentyl-N-(1-methyl-1H-pyrazol-3-yl)-2-(2-oxo-2,3-dihydro-indol-1-yl)-propionamide] | 17.55 µM |
| O=C(Nc1ccccn1)C(CC1CCCC1)N1C(=O)Cc2ccccc21 (centres unmarked) [Example 8, 3-Cyclopentyl-2-(2-oxo-2,3-dihydro-indol-1-yl)-N-pyridin-2-yl-propionamide] | 4.93 µM |
| CC(C)CC(C(=O)Nc1nccs1)N1C(=O)Cc2ccccc21 (centres unmarked) [Example 11, 4-Methyl-2-(2-oxo-2,3-dihydro-indol-1-yl)-pentanoic acid thiazol-2-ylamide] | 16.22 µM |
| CC(C)CC(C(=O)Nc1ccccn1)N1C(=O)Cc2ccccc21 (centres unmarked) [Example 12, 4-Methyl-2-(2-oxo-2,3-dihydro-indol-1-yl)-pentanoic acid pyridin-2-ylamide] | 18.09 µM |
| Cn1ccc(NC(=O)C(CC2CCCC2)N2C(=O)C(=O)c3c(Cl)cccc32)n1 (centres unmarked) [Example 15, 2-(4-Chloro-2,3-dioxo-2,3-dihydro-indol-1-yl)-3-cyclopentyl-N-(1-methyl-1H-pyrazol-3-yl)-propionamide] | 6.5 µM |
| O=C1C(=O)N(C(CC2CCCC2)C(=O)Nc2nccs2)c2cccc(Cl)c21 (centres unmarked) [Example 16, 2-(4-Chloro-2,3-dioxo-2,3-dihydro-indol-1-yl)-3-cyclopentyl-N-thiazol-2-yl-propionamide] | 3.91 µM |
| O=C(Nc1ccccn1)C(CC1CCCC1)N1C(=O)Cc2c(Cl)cccc21 (centres unmarked) [Example 21, 2-(4-Chloro-2-oxo-2,3-dihydro-indol-1-yl)-3-cyclopentyl-N-pyridin-2-yl-propionamide] | 1.23 µM |
| O=C(Nc1nccs1)C(CC1CCCC1)N1C(=O)Cc2c(Cl)cccc21 (centres unmarked) [Example 22, 2-(4-Chloro-2-oxo-2,3-dihydro-indol-1-yl)-3-cyclopentyl-N-thiazol-2-yl-propionamide] | 1.98 µM |
| Cn1ccc(NC(=O)C(CC2CCCC2)N2C(=O)Cc3c(Cl)cccc32)n1 (centres unmarked) [Example 23, 2-(4-Chloro-2-oxo-2,3-dihydro-indol-1-yl)-3-cyclopentyl-N-(1-methyl-1H-pyrazol-3-yl)-propionamide] | 7.4 µM |
| O=C(Nc1cnccn1)C(CC1CCCC1)N1C(=O)Cc2c(Cl)cccc21 (centres unmarked) [Example 24, 2-(4-Chloro-2-oxo-2,3-dihydro-indol-1-yl)-3-cyclopentyl-N-pyrazin-2-yl-propionamide] | 2.66 µM |
| O=C1C(=O)N(C(CC2CCCC2)C(=O)Nc2cnccn2)c2ccc(OC(F)(F)F)cc21 (centres unmarked) [Example 29, 3-Cyclopentyl-2-(2,3-dioxo-5-trifluoromethoxy-2,3-dihydro-indol-1-yl)-N-pyrazin-2-yl-propionamide] | 1.5 µM |

More lines, now with the values ahead:

| SC1.5 (concentration of activator that produced a 50% increase in the activity of GK) | Compound |
| --- | --- |
| 18.64 µM | O=C1C(=O)N(C(CC2CCCC2)C(=O)Nc2cnccn2)c2ccccc21 (centres unmarked) [Example 1, 3-Cyclopentyl-2-(2,3-dioxo-2,3-dihydro-indol-1-yl)-N-pyrazin-2-yl-propionamide] |
| 6.94 µM | O=C1C(=O)N(C(CC2CCCC2)C(=O)Nc2cnccn2)c2cccc(Cl)c21 (centres unmarked) [Example 13, 2-(4-Chloro-2,3-dioxo-2,3-dihydro-indol-1-yl)-3-cyclopentyl-N-pyrazin-2-yl-propionamide] |
| 1.9 µM | O=C1C(=O)N(C(CC2CCCC2)C(=O)Nc2ccccn2)c2cccc(Cl)c21 (centres unmarked) [Example 14, 2-(4-Chloro-2,3-dioxo-2,3-dihydro-indol-1-yl)-3-cyclopentyl-N-pyridin-2-yl-propionamide] |
| 13.42 µM | CC(C)CC(C(=O)Nc1ccccn1)N1C(=O)C(=O)c2c(Cl)cccc21 (centres unmarked) [Example 18, 2-(4-Chloro-2,3-dioxo-2,3-dihydro-indol-1-yl)-4-methyl-pentanoic acid pyridin-2-ylamide] |
| 7.72 µM | CC(C)CC(C(=O)Nc1nccs1)N1C(=O)C(=O)c2c(Cl)cccc21 (centres unmarked) [Example 20, 2-(4-Chloro-2,3-dioxo-2,3-dihydro-indol-1-yl)-4-methyl-pentanoic acid thiazol-2-ylamide] |
| 16.78 µM | CC(C)CC(C(=O)Nc1cnccn1)N1C(=O)Cc2c(Cl)cccc21 (centres unmarked) [Example 25, 2-(4-Chloro-2-oxo-2,3-dihydro-indol-1-yl)-4-methyl-pentanoic acid pyrazin-2-ylamide] |
| 6.77 µM | CC(C)CC(C(=O)Nc1ccccn1)N1C(=O)Cc2c(Cl)cccc21 (centres unmarked) [Example 26, 2-(4-Chloro-2-oxo-2,3-dihydro-indol-1-yl)-4-methyl-pentanoic acid pyridin-2-ylamide] |
| 9.95 µM | CC(C)CC(C(=O)Nc1nccs1)N1C(=O)Cc2c(Cl)cccc21 (centres unmarked) [Example 28, 2-(4-Chloro-2-oxo-2,3-dihydro-indol-1-yl)-4-methyl-pentanoic acid thiazol-2-ylamide] |

Same assay, conditions: @ 30 uM; 5 mM D-glucose, 30° C.

| Compound | fold induction at 30 µM |
| --- | --- |
| Cn1ccc(NC(=O)C(CC2CCCC2)N2C(=O)C(=O)c3ccccc32)n1 (centres unmarked) [Example 5, 3-Cyclopentyl-2-(2,3-dioxo-2,3-dihydro-indol-1-yl)-N-(1-methyl-1H-pyrazol-3-yl)-propionamide] | 1.47 |
| CC(C)CC(C(=O)Nc1ccccn1)N1C(=O)C(=O)c2ccccc21 (centres unmarked) [Example 9, 2-(2,3-Dioxo-2,3-dihydro-indol-1-yl)-4-methyl-pentanoic acid pyridin-2-ylamide] | 1.33 |
| CC(C)CC(C(=O)Nc1nccs1)N1C(=O)C(=O)c2ccccc21 (centres unmarked) [Example 10, 2-(2,3-Dioxo-2,3-dihydro-indol-1-yl)-4-methyl-pentanoic acid thiazol-2-ylamide] | 1.2 |
| CC(C)CC(C(=O)Nc1cnccn1)N1C(=O)C(=O)c2c(Cl)cccc21 (centres unmarked) [Example 17, 2-(4-Chloro-2,3-dioxo-2,3-dihydro-indol-1-yl)-4-methyl-pentanoic acid pyrazin-2-ylamide] | 1.39 |
| CC(C)CC(C(=O)Nc1ccn(C)n1)N1C(=O)C(=O)c2c(Cl)cccc21 (centres unmarked) [Example 19, 2-(4-Chloro-2,3-dioxo-2,3-dihydro-indol-1-yl)-4-methyl-pentanoic acid (1-methyl-1H-pyrazol-3-yl)-amide] | 1.24 |
| CC(C)CC(C(=O)Nc1ccn(C)n1)N1C(=O)Cc2c(Cl)cccc21 (centres unmarked) [Example 27, 2-(4-Chloro-2-oxo-2,3-dihydro-indol-1-yl)-4-methyl-pentanoic acid (1-methyl-1H-pyrazol-3-yl)-amide] | 1.39 |
